Assay results reported in ChEMBL document CHEMBL1141313 (Bioorg Med Chem, 2007).
One block for each compound: values may come before it.

Key:
[1] = target: Protease (Human immunodeficiency virus 1) (UniProt Q9YQ12); test: (§1) Inhibition of HIV1 protease
[2] = system: Human immunodeficiency virus 1; test: Antiviral activity against HIV1 in CEM cells; format: functional; settings: Human immunodeficiency virus 1, CCRF-CEM; for IC50: read-out: ID50 (the source's name)
[3] = system: Human immunodeficiency virus 1; test: Antiviral activity against HIV1 in MT4 cells; format: functional
Protease [4] = target: T1, Protease (Human immunodeficiency virus 1, UniProt Q9YQ12); test: as §1
Target sequence in this assay (Q9YQ12 whole entry): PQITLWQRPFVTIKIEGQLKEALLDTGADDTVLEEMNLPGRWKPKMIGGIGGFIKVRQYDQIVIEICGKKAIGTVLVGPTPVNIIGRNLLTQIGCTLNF

Protease [5] = target: T1, Protease; test: Inhibition of HIV1 protease mutant
Target sequence in this assay (Q9YQ12 1-99): as the sequence (Q9YQ12 whole entry) above

[6] = system: Human immunodeficiency virus 1; test: Antiviral activity against protease inhibitor-resistant HIV1 isolate; format: functional, organism-based

Sequence of Protease (Human immunodeficiency virus 1) (Q9YQ12 as listed by the source): as the sequence (Q9YQ12 whole entry) above

SMILES: COC(=O)N[C@H](C(=O)NCCCC[C@@H](COP(=O)(O)O)N(CC(C)C)S(=O)(=O)c1ccc(N)cc1)C(c1ccccc1)c1ccccc1
- Activity [1]: < 20 nM

SMILES: CC(C)CN(C[C@@H](O)[C@H](Cc1ccccc1)NC(=O)O[C@@H]1C[C@@H]2CCO[C@@H]2C1)S(=O)(=O)c1ccc(CO)cc1
- IC50 (Protease [4]): 1.8 nM
- Ki (Protease [4]): 0.0045 nM

SMILES: COc1ccc(S(=O)(=O)N(CC(C)C)C[C@@H](O)[C@H](Cc2ccccc2)NC(=O)O[C@H]2CO[C@H]3OCC[C@H]32)cc1
- IC50 [2]: 1.2 nM

SMILES: COC(=O)N[C@H](C(=O)NCCCC[C@@H](CO)N(CC(C)C)S(=O)(=O)c1ccc(N)cc1)C(c1ccccc1)c1ccccc1
- Activity [1]: < 20 nM

SMILES: C=CCNC(=O)[C@H]1NC(C(=O)[C@@H](O)[C@H](Cc2ccccc2)NC(=O)c2cccc(O)c2)SC1(C)C (stereo partly drawn)
- Ki (Protease [4]): 0.1 nM
- Ki (Protease [5]): 0.1 nM
- EC50 [6]: 34 nM

Continued, in another order:

- IC50 [2]: 4.7 nM
SMILES: CC(C)CN(C[C@@H](O)[C@H](Cc1ccccc1)NC(=O)O[C@H]1CO[C@H]2OCC[C@H]21)S(=O)(=O)c1ccc(N)cc1
- ID90 [3]: 10 nM
- TD50 [3]: >100 µM

- IC50 (Protease [4]): 1.8 nM
SMILES: CC(C)(C)NC(=O)[C@@H]1C[C@@H]2CCCC[C@@H]2CN1C[C@@H](O)[C@H](Cc1ccccc1)NC(=O)O[C@H]1CO[C@H]2OCC[C@H]21
- IC95 ([2]; read-out: CIC95): 0.046 µM
